Experimental data from PubChem BioAssay (NCI).
Values joined by “and” are separate entries in the source; they are usually repeats but may differ in a detail not shown here. Identical values can stand only once.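 Grown in 96-well plates, cells were treated for 48 hours with each compound at five concentrations. Insufficient inhibition: endpoint recorded as highest concentration tested. GI50: concentration for 50% inhibition of growth. The concentration for full growth arrest is given as TGI.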

What was measured:
Assay in all cases: NCI-60 cell line screen, 48 h
OVCAR-8 ovarian = tested on: OVCAR-8 ovarian
CAKI-1 renal = tested on: CAKI-1 renal
SN12C renal = tested on: SN12C renal
NCI-H522 lung = tested on: NCI-H522 lung
OVCAR-3 ovarian = tested on: OVCAR-3 ovarian
T-47D breast = tested on: T-47D breast
COLO 205 colon = tested on: COLO 205 colon
SK-OV-3 ovarian = tested on: SK-OV-3 ovarian
A498 renal = tested on: A498 renal
HCT-116 colon = tested on: HCT-116 colon

Row | SMILES | TGI (OVCAR-8 ovarian) | TGI (CAKI-1 renal) | TGI (SN12C renal) | TGI (NCI-H522 lung) | TGI (OVCAR-3 ovarian) | TGI (T-47D breast) | TGI (COLO 205 colon) | TGI (SK-OV-3 ovarian) | TGI (A498 renal) | TGI (HCT-116 colon) | GI50 (OVCAR-8 ovarian) | GI50 (CAKI-1 renal) | GI50 (SN12C renal) | GI50 (NCI-H522 lung) | GI50 (OVCAR-3 ovarian) | GI50 (T-47D breast) | GI50 (COLO 205 colon) | GI50 (SK-OV-3 ovarian) | GI50 (A498 renal) | GI50 (HCT-116 colon)
1 | C[C@]12CC[C@H](O)CC1=CC[C@@H]1C2CC[C@]2(C)c3nn(-c4ccc(F)cc4)nc3CC12 (stereo partly specified) | > 100 µM | > 100 µM | > 100 µM | > 100 µM | > 100 µM | > 100 µM | > 100 µM | > 100 µM | > 100 µM | > 100 µM | – | – | – | – | – | – | – | – | – | –
2 | COc1c(C)c2c(c(O)c1C/C=C(\C)CCC(=O)OCCN1CCOCC1)C(=O)OC2 | > 100 µM | > 100 µM | > 100 µM | > 100 µM | > 100 µM | > 100 µM | > 100 µM | > 100 µM | > 100 µM | > 100 µM | 0.464 µM | 0.299 µM | 0.448 µM | 0.3 µM | 0.348 µM | 0.612 µM | 0.692 µM | 0.462 µM | 0.52 µM | 0.131 µM
3 | COc1ccccc1C1=C2C(=O)N(C)C(c3ccccc3OC)=C2C(=O)N1C | > 100 µM | > 100 µM | > 100 µM | > 100 µM | > 100 µM | > 100 µM | > 100 µM | > 100 µM | > 100 µM | > 100 µM | – | – | – | – | – | – | – | – | – | –
4 | CN(C)NC1=NS(=O)(=O)c2cc3c(cc2S1)N(N(C)C)C(=O)c1cc2c(cc1N(N(C)C)C3=O)SC(NN(C)C)=NS2(=O)=O | > 10 µM | > 10 µM | > 10 µM | > 10 µM | > 10 µM | > 10 µM | > 10 µM | > 10 µM | > 10 µM | > 10 µM | – | – | – | – | – | – | – | – | – | –
5 | O=C(Nc1ccc(-n2cc(-c3ccncc3)c(-c3ccc(Cl)c(O)c3)n2)cc1)Nc1cc(C(F)(F)F)cc(C(F)(F)F)c1 | 5.48 µM | 3.57 µM | 7.57 µM | – | 2.89 µM | 8 µM | 2.81 µM | 5.43 µM | 5.39 µM | 3.14 µM | 1.99 µM | 1.77 µM | 2.03 µM | – | 1.52 µM | 1.85 µM | 1.2 µM | 2.13 µM | 1.56 µM | 1.61 µM
6 | C=C1C[C@@H]2C/C=C/C(=O)C/C(C)=C\C=C\C(=O)O[C@H](C=O)C/C(C)=C/[C@H](C1)O2 | > 100 µM | 26 µM | 20.4 µM | 19.5 µM | 24.4 µM | 54.3 µM | 17.7 µM | > 100 µM | > 55.6 µM | 3.86 µM | 1.49 µM | 4.71 µM | 0.697 µM | 4.48 µM | 0.557 µM | 1.42 µM | 0.885 µM | 5.36 µM | > 28.5 µM | 0.37 µM
7 | CN(C)CCCN=C(N)N | > 100 µM | > 100 µM | > 100 µM | > 100 µM | > 100 µM | > 100 µM | > 100 µM | > 100 µM | > 100 µM | > 100 µM | – | – | – | – | – | – | – | – | – | –
8 | COc1ccc2c(c1)nc(N)c1c3cc(OC)c(OC)cc3cn21 | 13.6 µM | 19.8 µM | 17.5 µM | – | – | 25.5 µM | 0.521 µM | 0.321 µM | 0.592 µM | 13.7 µM | 0.123 µM | – | 0.147 µM | < 0.01 µM | – | 0.721 µM | – | < 0.01 µM | 0.0135 µM | < 0.01 µM
9 | NCCCC(=O)Nc1ccncc1 | > 100 µM | > 100 µM | > 100 µM | > 100 µM | > 100 µM | > 100 µM | > 100 µM | > 100 µM | > 100 µM | > 100 µM | > 100 µM | > 100 µM | > 100 µM | > 100 µM | > 100 µM | > 100 µM | > 100 µM | > 100 µM | > 100 µM | > 100 µM
10 | c1ccc(C(=NNc2nc3ccccc3o2)c2ccccn2)nc1 | – | 7.87 µM and 1.34 µM | > 71.7 µM | – | 14.5 µM and 16.9 µM | 12.4 µM and 25.8 µM | 14.4 µM | – | 0.834 µM and 6.5 µM | – | 0.0389 µM | 0.0497 µM | 0.0856 µM | 0.0339 µM | < 0.0218 µM and 0.035 µM | – | 0.0194 µM | 0.0518 µM | 0.117 µM | 0.0296 µM
11 | CCOC(=O)CCCn1c(SC)nc2cc(-c3ccco3)[nH]c2c1=O | > 100 µM | 90.4 µM | > 100 µM | > 100 µM | > 100 µM | > 100 µM | > 100 µM | 32.5 µM | 76 µM | > 100 µM | 31.1 µM | 25.8 µM | 81.8 µM | 35.1 µM | 48.2 µM | 39.6 µM | > 100 µM | 5.74 µM | 27.4 µM | 49.8 µM
12 | CC([C@H]1CCC2C3CCC4C[C@@H](NC=O)CC[C@]4(C)C3CC[C@@]21C)N(C)C (stereo partly specified) | > 46.4 µM | 11.9 µM | 13.7 µM | 17.6 µM | 9.01 µM | 5.94 µM | 3.11 µM | 13.5 µM | 11.9 µM | 3.22 µM | 6.48 µM | 4.26 µM | 2.88 µM | 4.53 µM | 2.55 µM | 1.76 µM | 1.54 µM | 3.96 µM | 2.51 µM | 1.54 µM
13 | CC1(C)COCN1COC1CCCCC1 | > 100 µM | > 100 µM | > 100 µM | > 100 µM | > 100 µM | > 100 µM | > 100 µM | > 100 µM | > 100 µM | > 100 µM | – | – | – | – | – | – | – | – | – | –
14 | O=C1C(=Cc2ccco2)C(=O)C2CCCCC12 (stereo unspecified) | > 100 µM | > 100 µM | > 100 µM | > 100 µM | > 100 µM | > 100 µM | > 100 µM | > 100 µM | > 100 µM | > 100 µM | – | – | – | – | – | – | – | – | – | –
15 | Nc1nc(Nc2ccc3c(c2)CC[C@@H](N2CCCC2)CC3)nn1-c1cc2c(nn1)-c1ccccc1CCC2 | – | 2.5 µM | – | 3.79 µM | 3.36 µM | 5.1 µM | – | 3.34 µM | 1.44 µM | 3.08 µM | – | 1.22 µM | – | 1.75 µM | 1.74 µM | 2.16 µM | – | 1.66 µM | 0.0249 µM | 1.5 µM
16 | FC(F)(F)c1cccc(COCCN2CCN(Cc3cccc(C(F)(F)F)c3)CC2)c1 | 41.2 µM | 31.3 µM | 33 µM | 26.5 µM | 42.9 µM | 39.1 µM | 42.3 µM | 31.1 µM | 28.8 µM | 34.9 µM | – | – | – | – | – | – | – | – | – | –
17 | COC(=O)NC/C=C\c1nc(CC/C=C\C(=O)OC2CC3CC(=O)O[C@H](/C=C/CC(C)C)C[C@H]4CCC(C)C(C[C@H](OC)CC(C2)O3)O4)co1 (stereo partly specified) | > 100 µM | 41.1 µM | 28.8 µM | – | – | > 100 µM | > 100 µM | > 100 µM | 57.1 µM | 37.5 µM | > 100 µM | < 0.01 µM | < 0.01 µM | – | – | 39.1 µM | 1.1 µM | 63.9 µM | 13.6 µM | < 0.01 µM
18 | CCC1=C[C@@H]2CN(C1)Cc1c([nH]c3ccccc13)[C@@](C(=O)OC)(c1cc3c(cc1OC)N(C=O)[C@H]1[C@@](O)(C(=O)OC)[C@H](OC(C)=O)[C@]4(CC)[C@@H]5C[C@@H]5CN5CC[C@]31[C@@H]54)C2 | > 6.25 µM | > 6.25 µM | > 6.25 µM | 0.01 µM | – | > 6.25 µM | 0.00122 µM | – | 0.0794 µM | – | 0.00268 µM | 0.253 µM | 0.0228 µM | < 0.000625 µM | < 0.000625 µM | < 0.000625 µM | < 0.000625 µM | < 0.000625 µM | 0.00221 µM | < 0.000625 µM
19 | CCN1C(=O)N(CC)C2C1NN=c1s/c(=C3\C(=O)N(CC(C)C)c4ccccc43)c(=O)n12 (stereo unspecified) | > 100 µM | > 100 µM | > 100 µM | – | 0.799 µM | > 100 µM | 2.32 µM | 39.8 µM | 0.875 µM | > 100 µM | 1.33 µM | 0.522 µM | 1.95 µM | 0.4 µM | 0.284 µM | 0.311 µM | 0.401 µM | 0.493 µM | 0.197 µM | 0.441 µM
20 | c1ccc2[nH]c(SSc3nc4ncncc4[nH]3)nc2c1 | > 100 µM | 3.77 µM | > 100 µM | – | > 100 µM | 98.9 µM | 10.2 µM | 34.2 µM | > 91.1 µM | > 100 µM | 3.32 µM | 0.212 µM | 5.38 µM | 0.383 µM | 0.579 µM | 0.489 µM | 2.59 µM | 0.37 µM | 8.11 µM | 0.913 µM
21 | Cc1cccc(C)c1NC(=O)/C(Cl)=C(/Cl)C(=O)O | 40.9 µM | 15.1 µM | 33.7 µM | 8.92 µM | 41.8 µM | 66.2 µM | 11.4 µM | 45.5 µM | 60.6 µM | 36.4 µM | – | – | – | – | – | – | – | – | – | –
22 | CCN(CC)CCOc1ccc(Nc2ncc3cc(-c4ccc(O)cc4)c(=O)n(C)c3n2)cc1 | 15.2 µM | 16.1 µM | 21.2 µM | 27.1 µM | 31.2 µM | 31.8 µM | 17.2 µM | 24.8 µM | 13.4 µM | – | 3.72 µM | 0.0379 µM | 0.212 µM | 2.69 µM | 15.9 µM | 12.2 µM | 1.59 µM | 0.0791 µM | 1.5 µM | –
